Assay results as given in PMC7156367, “Cell surface processing of the P1 adhesin of Mycoplasma pneumoniae identifies novel domains that bind host molecules” (Scientific Reports, 2020).
“Also recorded” adds a separate entry of the source. Where a SMILES comes first, the peptide text is derived from it. Where no end group is shown, it is not given here. The star is where a group is joined. Biotin = O=C1N[C@H]2[C@H](CS[C@H]2CCCCC(=O)*)N1

Legend:
[1] = target: T1, plasminogen (Homo sapiens, UniProt P00747); test: Microscale thermophoresis, binding to plasminogen
T1 construct: purchased Merck Millipore (Code 528175) or Sigma (Glu-plasminogen, Code P7999); host or cells: human plasma
Procedure: (§1) Binding affinities to fluorescent labelled host proteins was measured by microscale thermophoresis as described in[72]. Microscale thermophoresis was set to 30 s and samples were scanned with 40%, 60% and 80% MST Power. Dissociation constants were determined from generated dissociation curves with set hot/cold or thermophoresis settings. As a control, a scrambled version of the C-terminal P1 peptide ([…]) was synthesised by Chempeptide Limited (China) without any tags and binding affinities was measured.

[2] = system: Glu-plasminogen; test: Microtitre plate binding assay (ELISA), plasminogen; parameters: species or system human; conditions: 15 µg/ml of C-terminal P1 fragments bound to wells, absorbance 450 nm (620 nm reference), eight replicates, P1-15 with N-terminal biotin tag
Procedure: (§2) Human proteins used for ELISA include: plasma fibrinogen (Code: F3879), plasma fibronectin (Code: 11051407001), Glu-plasminogen (Code: P7999), vitronectin (Code: SRP3186), laminin (Code: L6274), and lactoferrin (Code: L1294) which were all supplied by Sigma.
(§3) Binding affinity measured by ELISA was performed as described previously. Recombinant protein RP15 was produced as described[55] and both C-terminal peptides were synthesised by Chempeptide Limited (China). P1-30 (^1597[…]^1627) without any tags, but P1-15 (^1613PGAPKPPVQPPKKPA^1627) was sequenced with an N-terminal biotin tag.
(§4) 15 µg/ml of C-terminal P1 fragments were bound to wells and incubated with different host proteins. Wells were then incubated with different antiserum raised against the different host proteins at the following dilutions (all from Sigma): anti-fibrinogen 1:3000, anti-fibronectin 1:1000, anti-plasminogen: 1:2500, anti-vitronectin 1:5000, anti-laminin 1:750, and anti-lactoferrin 1:5,000. These incubations were followed by incubations with anti-rabbit IgG (Dako) or anti-goat IgG (both 1:2,000). Detection was measured by adding Tetramethylbenzidine (Sigma) followed by 1 M HCl, and absorbance was measured at 450 nm (620 nm as reference).

[3] = system: plasma fibronectin; test: Microtitre plate binding assay (ELISA), fibronectin; parameters: species or system human; conditions: 15 µg/ml of C-terminal P1 fragments bound to wells, absorbance 450 nm (620 nm reference), eight replicates, P1-15 with N-terminal biotin tag
Procedure: as §2, §3, §4

[4] = system: plasma fibrinogen; test: Microtitre plate binding assay (ELISA), fibrinogen; parameters: species or system human; conditions: 15 µg/ml of C-terminal P1 fragments bound to wells, absorbance 450 nm (620 nm reference), eight replicates, P1-15 with N-terminal biotin tag
Procedure: as §2, §3, §4

[5] = system: vitronectin; test: Microtitre plate binding assay (ELISA), vitronectin; parameters: species or system human; conditions: 15 µg/ml of C-terminal P1 fragments bound to wells, absorbance 450 nm (620 nm reference), eight replicates, P1-15 with N-terminal biotin tag
Procedure: as §2, §3, §4

[6] = system: laminin; test: Microtitre plate binding assay (ELISA), laminin; parameters: species or system human; conditions: 15 µg/ml of C-terminal P1 fragments bound to wells, absorbance 450 nm (620 nm reference), eight replicates, P1-15 with N-terminal biotin tag
Procedure: as §2, §3, §4

[7] = system: lactoferrin; test: Microtitre plate binding assay (ELISA), lactoferrin; parameters: species or system human; conditions: 15 µg/ml of C-terminal P1 fragments bound to wells, absorbance 450 nm (620 nm reference), eight replicates, P1-15 with N-terminal biotin tag
Procedure: as §2, §3, §4

[8] = system: cytokeratin 7; test: Affinity chromatography of A549 lysate on P1-15, cytokeratin 7; format: binding, human; conditions: biotinylated P1-15 on avidin agarose vs uncoupled avidin agarose control, native A549 cell lysate
Procedure: (§5) The C-terminal sequence of P1 (P1-15) was synthesised with an N-terminal biotin tag by Chempeptide Limited (China). Affinity chromatography was performed similar to the section above. In brief, 1 mg of the peptide was added to Avidin Agarose beads for 16 h at 4 °C. The beads were washed four times (5 ml per wash) with PBS before being incubated with native A549 cell lysates (harvested in 1% w/v C7BzO in PBS) for 16 h at 4 °C. Non-binding proteins were washed from the column with four washes (5 ml per wash) of PBS and protein complexes with an affinity to the peptide were eluted from the column with 7 M urea, 2 M thiourea, 40 mM Tris-HCl, and 1% (w/v) C7BzO (4 times of 2 ml). Eluents were concentrated with a Macrosep® 3 kDa cutoff centrifugal device (Pall), precipitated with acetone, and separated by 1D-SDS PAGE. The whole lane was divided into sections, in-gel digested with trypsin, and analysed by LC-MS/MS as described above.

[9] = system: cytokeratin 8; test: Affinity chromatography of A549 lysate on P1-15, cytokeratin 8; format: binding, human; conditions: biotinylated P1-15 on avidin agarose vs uncoupled avidin agarose control, native A549 cell lysate
Procedure: as §5

[10] = system: cytokeratin 18; test: Affinity chromatography of A549 lysate on P1-15, cytokeratin 18; format: binding, human; conditions: biotinylated P1-15 on avidin agarose vs uncoupled avidin agarose control, native A549 cell lysate
Procedure: as §5

[11] = system: vimentin; test: Affinity chromatography of A549 lysate on P1-15, vimentin; format: binding, human; conditions: biotinylated P1-15 on avidin agarose vs uncoupled avidin agarose control, native A549 cell lysate
Procedure: as §5

[12] = system: glyceraldehyde-3-phosphate dehydrogenase; test: Affinity chromatography of A549 lysate on P1-15, glyceraldehyde-3-phosphate dehydrogenase; format: binding, human; conditions: slice 3; biotinylated P1-15 on avidin agarose vs uncoupled control; native A549 cell lysate
Procedure: as §5

[13] = system: panel of host proteins; test: Microtitre binding assays, panel of host proteins; parameters: species or system human; conditions: 15 µg/ml of C-terminal P1 fragments bound to wells
Procedure: as §2, §3, §4

[14] = target: T2, fetuin (Bos taurus, UniProt P12763); test: Microscale thermophoresis, binding to fetuin
T2 construct: purchased Sigma F3004
T2 sequence (P12763 19-359): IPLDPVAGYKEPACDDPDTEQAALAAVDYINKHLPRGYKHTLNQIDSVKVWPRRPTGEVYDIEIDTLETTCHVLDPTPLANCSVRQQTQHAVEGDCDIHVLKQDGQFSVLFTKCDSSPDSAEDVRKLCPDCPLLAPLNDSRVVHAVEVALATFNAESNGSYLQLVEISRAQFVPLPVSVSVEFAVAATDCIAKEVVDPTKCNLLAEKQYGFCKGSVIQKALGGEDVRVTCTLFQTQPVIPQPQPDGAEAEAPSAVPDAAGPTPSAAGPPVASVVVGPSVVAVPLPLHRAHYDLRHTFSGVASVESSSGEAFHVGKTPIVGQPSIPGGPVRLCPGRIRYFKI
Procedure: as §1

[15] = system: A549 human lung cells; test: Binding to immobilised A549 human lung cells (microtitre plate); format: cell-based; conditions: 10 µg/ml; detection with antiserum against RP15 (1:100), absorbance 450 nm; eight replicates
Procedure: Freshly grown A549 cells were immobilised in 96-well microtitre plates as described in[17]. Immobilised A549 cells were incubated with 10 µg/ml of either RP15, P1-30, or P1-15 and binding affinity was measured with antiserum raised against RP15 (1:100) as described above. Absorbance detection at 450 nm is the same as described above.

[16] = target: T3, Human vitronectin (human, UniProt P04004 20-478); test: ELISA; 15 µg/ml of C-terminal P1 fragment bound to wells, incubated with host protein at several concentrations; detected with antiserum against the host protein, absorbance at 450 nm; conditions: both partners purified
T3 construct: vitronectin, human, Sigma SRP3186; source: bought: Sigma (Code SRP3186)

[17] = target: T4, Human lactoferrin (human, UniProt P02788 20-710); test: as above; conditions: both partners purified
T4 construct: lactoferrin, human, Sigma L1294; source: bought: Sigma (Code L1294)

[18] = target: T5, Fetuin, fluorescent labelled (microscale thermophoresis) (bovine, UniProt P12763 19-359, fluorescent label); test: MST; fluorescent labelled host protein, peptide titrated; thermophoresis 30 s, 40%, 60% and 80% MST power; conditions: both partners purified
T5 construct: fetuin
T5 sequence (looked up): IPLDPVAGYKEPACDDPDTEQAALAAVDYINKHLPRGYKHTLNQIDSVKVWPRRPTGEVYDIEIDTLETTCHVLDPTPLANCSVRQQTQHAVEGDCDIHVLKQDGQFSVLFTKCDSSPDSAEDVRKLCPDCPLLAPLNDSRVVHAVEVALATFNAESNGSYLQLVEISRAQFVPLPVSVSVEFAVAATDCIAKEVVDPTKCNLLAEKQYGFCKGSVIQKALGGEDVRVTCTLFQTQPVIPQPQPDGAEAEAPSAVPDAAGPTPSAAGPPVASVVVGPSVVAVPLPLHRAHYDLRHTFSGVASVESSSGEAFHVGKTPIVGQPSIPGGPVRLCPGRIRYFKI

[19] = listed as 1613PGAPKPPVQPPKKPA^1627

T3 sequence (P04004 20-478): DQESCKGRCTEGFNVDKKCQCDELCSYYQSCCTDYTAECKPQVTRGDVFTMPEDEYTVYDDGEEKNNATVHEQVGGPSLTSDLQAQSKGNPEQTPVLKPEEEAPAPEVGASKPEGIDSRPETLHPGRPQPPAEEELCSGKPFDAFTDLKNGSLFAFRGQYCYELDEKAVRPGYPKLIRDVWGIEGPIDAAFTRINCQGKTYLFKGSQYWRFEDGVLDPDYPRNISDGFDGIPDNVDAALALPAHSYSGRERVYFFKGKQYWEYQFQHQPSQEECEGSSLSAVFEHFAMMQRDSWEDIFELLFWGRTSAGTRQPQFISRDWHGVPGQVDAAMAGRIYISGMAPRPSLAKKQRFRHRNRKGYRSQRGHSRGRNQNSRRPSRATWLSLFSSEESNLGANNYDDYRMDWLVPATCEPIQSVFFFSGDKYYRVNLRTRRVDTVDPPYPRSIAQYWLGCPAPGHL
T4 sequence (P02788 20-710): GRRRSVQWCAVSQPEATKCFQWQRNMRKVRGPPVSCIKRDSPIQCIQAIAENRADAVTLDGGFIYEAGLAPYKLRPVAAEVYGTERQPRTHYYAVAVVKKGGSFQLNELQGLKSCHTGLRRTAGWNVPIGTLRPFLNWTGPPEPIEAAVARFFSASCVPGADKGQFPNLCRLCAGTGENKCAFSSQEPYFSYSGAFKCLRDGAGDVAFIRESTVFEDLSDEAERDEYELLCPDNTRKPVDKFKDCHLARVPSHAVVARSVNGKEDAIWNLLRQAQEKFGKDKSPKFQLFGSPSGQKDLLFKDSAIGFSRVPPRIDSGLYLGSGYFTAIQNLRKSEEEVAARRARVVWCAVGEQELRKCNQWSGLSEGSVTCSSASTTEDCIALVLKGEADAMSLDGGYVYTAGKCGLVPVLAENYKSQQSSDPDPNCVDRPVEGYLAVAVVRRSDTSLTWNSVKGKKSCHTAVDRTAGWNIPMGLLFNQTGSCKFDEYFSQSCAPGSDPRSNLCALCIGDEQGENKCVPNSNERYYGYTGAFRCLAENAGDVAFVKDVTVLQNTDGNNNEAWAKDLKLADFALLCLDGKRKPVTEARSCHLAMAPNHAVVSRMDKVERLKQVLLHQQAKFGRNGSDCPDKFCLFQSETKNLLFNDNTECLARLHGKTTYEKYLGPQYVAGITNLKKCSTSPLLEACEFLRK

CC(C)[C@H](NC(=O)[C@@H]1CCCN1C(=O)[C@@H]1CCCN1C(=O)[C@H](CCCCN)NC(=O)[C@@H]1CCCN1C(=O)[C@H](C)NC(=O)CNC(=O)[C@@H]1CCCN1C(=O)[C@H](CCCCN)NC(=O)[C@@H]1CCCN1C(=O)[C@@H]1CCCN1C(=O)[C@@H](NC(=O)[C@@H]1CCCN1C(=O)[C@@H]1CCCN1C(=O)[C@H](CCCNC(=N)N)NC(=O)[C@@H]1CCCN1C(=O)[C@H](C)NC(=O)CNC(=O)[C@@H]1CCCN1C(=O)[C@H](CCCCN)NC(=O)[C@H](C)NC(=O)[C@H](C)NC(=O)[C@H](CO)NC(=O)[C@@H](N)[C@@H](C)O)C(C)C)C(=O)N[C@@H](CCC(N)=O)C(=O)N1CCC[C@H]1C(=O)N1CCC[C@H]1C(=O)N[C@@H](CCCCN)C(=O)N[C@@H](CCCCN)C(=O)N1CCC[C@H]1C(=O)N[C@@H](C)C(=O)O [P1-30] (H-TSAAKPGAPRPPVPPKPGAPKPPVQPPKKPA-OH)
Kd [1]: 0.554 ± 0.0021 µM

PGAPKPPVQPPKKPA [P1-15, C-terminal 15 amino acids of P1, synthesised chemically, N-terminal biotin tag]
binding to plasminogen [2]: only bound plasminogen in a dose dependent manner; also recorded: bound plasminogen in a dose-responsive manner | binding to fibronectin [3]: failed to bind laminin, lactoferrin, fibronectin | binding to fibrinogen [4]: failed to bind laminin, lactoferrin, fibronectin, and fibrinogen | binding to vitronectin [5]: also bound to vitronectin | binding to laminin [6]: failed to bind laminin | binding to lactoferrin [7]: failed to bind laminin, lactoferrin | selective recovery / binding, cytokeratin 7 [8]: selectively recovered | selective recovery / binding, cytokeratin 7 [8, 19]: selectively bound | selective recovery / binding, cytokeratin 8 [9]: selectively recovered | selective recovery / binding, cytokeratin 8 [9, 19]: selectively bound | selective recovery / binding, cytokeratin 18 [10]: selectively recovered | selective recovery / binding, cytokeratin 18 [10, 19]: selectively bound | selective recovery / binding, vimentin [11]: selectively recovered | selective recovery / binding, vimentin [11, 19]: selectively bound | recovery of glyceraldehyde-3-phosphate dehydrogenase [12]: also identified in the eluents from the control | binding to panel of host molecules [13]: bind a range of host molecules in a dose dependent manner

PKPPRAAPPKAPTPVPPGPASPVKKPKQAPG [scrambled version of P1-30, scrambled version of the C-terminal P1 peptide ([…])]
binding affinity in words, plasminogen ([1]; microscale thermophoresis): No binding affinity could be detected | KD, plasminogen ([1]; microscale thermophoresis, fluorescent labelled host protein, 30 s, 40%, 60% and 80% MST Power): could not be assigned a KD value | binding affinity in words, fetuin [14]: No binding affinity could be detected | KD, fetuin ([14]; fluorescent labelled host protein, 30 s, 40%, 60% and 80% MST Power): could not be assigned a KD value

B1: Recombinant protein RP15 (C-terminal region of P1 adhesin) (domain or fragment)
chain: DYVLPLAITVPIVVIVLSVTLGLAIGIPMHKNKQALKAGFALSNQKVDVLTKAVGSVFKEIINRTGISQAPKRLKQTSAAKPGAPRPPVPPKPGAPKPPVQPPKKPA
notes: P1 adhesin (Mpn141) of M. pneumoniae, residues 1521-1627
binding to plasminogen [2]: bound lactoferrin, vitronectin, plasminogen | binding to plasminogen ([2]; listed as RP-15): bound it more strongly | binding to fibronectin [3]: bound lactoferrin, vitronectin, plasminogen, fibronectin | binding to fibronectin ([3]; listed as RP-15): bound fibronectin and fibrinogen more strongly than P1-30 | binding to fibrinogen [4]: bound lactoferrin, vitronectin, plasminogen, fibronectin, and fibrinogen | binding to fibrinogen ([4]; listed as RP-15): bound fibronectin and fibrinogen more strongly than P1-30 | binding to vitronectin [5]: bound lactoferrin, vitronectin | binding to laminin [6]: Only M. pneumoniae cells bound laminin | binding to lactoferrin [7]: bound lactoferrin | binding to immobilised A549 cells [15]: bound immobilised A549 cells; also recorded: observed to bind immobilised A549 cells | binding to panel of host molecules [13]: bind a range of host molecules in a dose dependent manner; also recorded: most consistent and most diverse binding capabilities | binding result [16]: binds | binding result [17]: binds

B2: P1-15, synthetic C-terminal peptide of P1 adhesin with N-terminal biotin (peptide)
peptide: Biotin-PGAPKPPVQPPKKPA
notes: P1 adhesin (Mpn141) of M. pneumoniae, residues 1613-1627; also called C-terminal 15 amino acids; source: synthetic peptide (Chempeptide Limited, China)
binding result [16]: binds

B3: rPdhB: Recombinant pyruvate dehydrogenase subunit B of M. pneumoniae (positive control) (protein, UniProt P75391 1-327, looked up)
Pyruvate dehydrogenase E1 …: MSKTIQANNIEALGNAMDLALERDPNVVLYGQDAGFEGGVFRATKGLQKKYGEERVWDCPIAEAAMAGIGVGAAIGGLKPIVEIQFSGFSFPAMFQIFTHAARIRNRSRGVYTCPIIVRMPMGGGIKALEHHSETLEAIYGQIAGLKTVMPSNPYDTKGLFLAAVESPDPVVFFEPKKLYRAFRQEIPADYYTVPIGQANLISQGNNLTIVSYGPTMFDLINMVYGGELKDKGIELIDLRTISPWDKETVFNSVKKTGRLLVVTEAAKTFTTSGEIIASVTEELFSYLKAAPQRVTGWDIVVPLARGEHYQFNLNARILEAVNQLLK
binding to immobilised A549 cells [15]: bound immobilised A549 cells

B4: P1-30, synthetic C-terminal peptide of P1 adhesin (peptide)
peptide: TSAAKPGAPRPPVPPKPGAPKPPVQPPKKPA
notes: P1 adhesin (Mpn141) of M. pneumoniae, residues 1597-1627; without any tags; also called C-terminal 30 amino acids; P1 tail; source: synthetic peptide (Chempeptide Limited, China)
Kd [18]: 2.4 ± 0.7 µM
